Tests used:
[1] = tested on: rat adjuvant-induced arthritis; experiment: Rat adjuvant-induced arthritis model; type: in vivo
Procedure: Mean of 10 readings was recorded.
Drugs were formulated fresh for each administration.

[2] = Ex vivo bioassay of blood concentration after oral administration; design: species or system rat; settings: 10 mg/kg oral, suspension in PBS/Tween, +/- CyA 0.3 mg/kg, 0.5-24 hrs, n=6
Procedure: Compound 1 (10 mg/kg)±CyA (0.3 mg/kg) (in PBS/0.1% Tween 80™] was administered to healthy male Lewis rats (as above). Blood samples (0.5 ml into a syringe containing 0.1 ml acid citrate dextroset as anticoagulant) were removed from the ventrcolateral tail vein of the halothane anaestetised rat at t=prebleed, 0.5, 1, 2, 6 and 24 hrs. 3 mls methanol was added to each blood sample, mixed and centrifuged at 3000 r.p.m. for 15 minutes (using Beckman GPKR centrifuge). 2.0 ml of the methanol supernatant was removed and evaporated dry. The pellet was redisolved in 200 μl DMSO (dimethylsulphoxide). An aliquot of the solubilised pellet was assayed against fibroblast collagenase using ^14C collagen as substrate, as follows:
Samples were incubated overnight at 37° C. and undigested substrate removed by centrifugation at 11,600 r.p.m. for 15 mins (using Heraeus Biofuge 15). 200 μl of supernatant was tested by liquid scintillation spectrophotometry.
A calibration curve for the test compound of interest was run alongside the blood samples. The concentration of the test compound in the blood was then calculated from the calibration curve.

SMILES: CCC[C@H](C(=O)NO)[C@@H](CC(C)C)C(=O)N[C@H](C(=O)NC)C(C)(C)C [Compound 1, 3R-(2,2-Dimethyl-1S-methylcarbamoyl-propylcarbamoyl)-5-methyl-2S-2-propyl-hexanohydroxamic acid]
- effect on arthritis ([1]; Compound 1 10 mg/ml (so in the source), po, bid, days 10-20): very little or no effect
- reducing the paw volume (swelling) ([1]; Compound 1 at doses at or below 10 mg/kg, po, bid (data not shown)): ineffective
- blood concentration of Compound 1 with versus without CyA [2]: equivalent

SMILES: CNC(=O)[C@H](Cc1ccccc1)NC(=O)[C@H](CC(C)C)[C@H](CSc1cccs1)C(=O)NO [Compound 2, [4-(N-Hydroxyamino)-2R-isobutyl-3S-(thiophenylthiomethyl)succinyl]-L-phenylalanine-N-methylamide]
- synergy with cyclosporin A ([1]; Compound 2 5 mg/kg ip, bid with cyclosporin A 0.3 mg/kg ip, bid): act in synergy

— US20020025925A1, “Combination therapy” (priority 1996, published 2002)
